“Also recorded” adds a separate entry of the source. Like-named read-outs stand apart in the source and are kept apart here.
Experiments:
[1] = ref ChemBridge, cited from earlier work; for Hacc (hydrogen bond acceptor) / Hdon (hydrogen bond donor): provided by the compound library supplier; for LogSw: supplier data
[2] = target: TbPEX3–TbPEX19 interaction (Trypanosoma brucei brucei, UniProt Q383Q3); test: AlphaScreen TbPEX3–TbPEX19 inhibitor screening and dose response; assay type: binding; conditions: for Activity scores (robust z-scores) / Note (activity in the screen): primary AlphaScreen screen, 10 μM compound
TbPEX3–TbPEX19 interaction, sequence (Q383Q3 entry or part of it, other chains not shown): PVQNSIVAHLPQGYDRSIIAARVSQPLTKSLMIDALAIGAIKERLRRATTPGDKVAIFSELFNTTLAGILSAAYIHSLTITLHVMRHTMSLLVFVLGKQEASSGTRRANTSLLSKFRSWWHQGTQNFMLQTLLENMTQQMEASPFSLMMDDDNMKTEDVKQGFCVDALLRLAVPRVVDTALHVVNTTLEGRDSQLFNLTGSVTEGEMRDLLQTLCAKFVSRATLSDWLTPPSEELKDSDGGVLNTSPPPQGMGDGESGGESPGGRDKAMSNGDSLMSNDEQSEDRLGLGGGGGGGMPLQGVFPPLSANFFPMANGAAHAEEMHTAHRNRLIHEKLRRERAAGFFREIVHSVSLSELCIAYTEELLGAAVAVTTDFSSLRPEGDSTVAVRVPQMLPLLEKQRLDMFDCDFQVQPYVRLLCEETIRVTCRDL
Protocol: The above solutions were prepared in the reaction buffer [0.5% BSA v/v, 0.05% Tween 80 v/v, 0.2 mM DTT, PBS (pH7.4)] on the day of assay, diluting the compounds from 1 mM stocks in DMSO. Compounds were incubated with the proteins for 30 min at room temperature (RT). Five microliters of AlphaScreen Nickel-chelate acceptor beads (cat. no. 6760619C, PerkinElmer®) and AlphaScreen Glutathione donor beads (cat. no. 6765300, PerkinElmer®) were distributed to the mixture consecutively, with a 15-min interval. The complete 25-μl reaction solutions were incubated for 45 min at RT in the dark, and Alpha signals were captured with Cytation 5 plate reader (BioTek®) with the gain value set at 180. Schematic representation of the experiment setup of the high-throughput screening assays was prepared with BioRender.com.
Following initial hit selection, 10 μM of drugs were tested with GST-His (54 nM) and TbPEX19/TbPEX3 (5 nM) in smaller scale, and the level of signal was normalized (in %) and compared.

GST-His = target: T1, GST-His (Schistosoma japonicum, UniProt P08515); test: NMR saturation transfer difference (STD) with GST-His control; assay type: binding; conditions: 10 μM protein, 300 µM ligand
T1 construct: made in house; host or cells: E. coli BL21(DE3)
T1 sequence (P08515 whole entry): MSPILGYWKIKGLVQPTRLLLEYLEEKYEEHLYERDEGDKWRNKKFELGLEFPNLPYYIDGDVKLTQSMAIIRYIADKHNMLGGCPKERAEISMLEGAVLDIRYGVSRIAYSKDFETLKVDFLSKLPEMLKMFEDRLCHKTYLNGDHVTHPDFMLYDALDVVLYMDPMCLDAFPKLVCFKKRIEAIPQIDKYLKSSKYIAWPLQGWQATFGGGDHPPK
Protocol: (§1) NMR saturation transfer difference (STD) experiments ([Mayer and Meyer, 1999]) were carried out on a Bruker AVIII 600-MHz spectrometer equipped with a cryoprobe and a SampleJet auto sampler. One-dimensional (1D) and STD spectra were acquired at 298 K. Compounds were dissolved in DMSO-d6 to a final concentration of 50 mM. STD experiments with GST-TbPEX3, TbPEX19-His, and GST-His were performed in PBS (pH 7.4), 10% D2O at a protein concentration of 10 μM, and a ligand concentration of 300 µM. Saturation time and interscan delay within STD experiments were set to 2 and 2.5 s, respectively.

T. brucei BSF427 = test: T. brucei cell viability, resazurin-based assay; parameters: species or system Trypanosoma brucei
Protocol: BSF strain Lister 427 (termed hereafter as BSF427) and cell line 90-13 (stably expressing Tet repressor) were used in this study. BSF cells were grown in HMI-11 medium and maintained in logarithmic phase [below 2 × 10^6 cells/ml as described in [Kalel et al. (2019)]]. Genomically integrated stable transfections were performed with NotI-linearized plasmid constructs (pGN1-TbPEX11), which integrate into the spacer region of the ribosomal RNA repeat locus in the genome of cell line 90-13, and the clones were selected using blasticidin as described previously ([Kalel et al., 2015]). Expression of TbPEX11-GFP was confirmed with fluorescence microscopy following induction tests (data not shown) with a serial dilution of tetracycline, and minimal concentration (5 ng/ml) of tetracycline was used to achieve expression of the protein in more than 80% of the cells.
T. brucei BSF427 and compound dilutions were mixed in 1 : 1 (v/v) ratio to total volume of 200 μl, to reach final concentrations of 2 × 10^3 cells/ml and 0.19–100 μM of inhibitors, in quadruplicates in 96-well plates. Culture medium with no cells was used as negative control and cultures without presence of compounds as positive control representing normal rate of cell growth. Cells were grown at 37°C in an incubator with humidified air containing 5% CO2 for 3 days. Cell viabilities were measured quantitatively using resazurin dye, by adding 25-µl resazurin (0.1 mg/ml in HBSS) to each well, and the mixture incubated for 6 h in the incubator. Fluorescence emission was detected at 570 and 585 nm after excitation at 530 nm, and fluorescence at 570 nm was subtracted from 585 nm. The inhibition curves were fitted with normalized fluorescence signal (in percentage) against concentration of compounds in Log10 scale using GraphPad Prism, and best fit was used for EC50 estimation. Chemical structures were drawn with ChemDraw 20.0.

[3] = tested on: T. brucei bloodstream form parasites; test: Immunofluorescence microscopy of glycosomal aldolase localization; assay type: cell-based, Trypanosoma brucei; conditions: 24 h treatment
Protocol: BSF 90-13 cells with genomically integrated PEX11-GFP were induced with 5 ng/ml of tetracycline and cultured overnight to initiate stable expression of PEX11-GFP. BSF427- and PEX11-GFP–expressing cells were treated for 24 h with 100 μM, 50 and 25 μM of each of the inhibitor, and DMSO was used as control. Compound-treated cultures with growth rates of about 50% compared to the DMSO control were harvested and stained for immunofluorescence and statistical analysis. Cells were fixed with 4% paraformaldehyde in PBS containing 250 mM sucrose for 20 min. Fixed cells were immobilized on adhesive slide (StarFrost®) pre-coated with 10% (v/v) of poly-L-lysine (Sigma-Aldrich®) in water after 1-h incubation at RT. Cells were permeabilized with 0.1% (v/v) Triton X-100 in PBS (pH7.4) for 15 min and blocked in buffer D [PBS supplemented with 1% (w/v) BSA and 0.25% (v/v) Tween 20] for 1 h. Anti-TbAldolase primary antibody was used at 1:500 dilution in buffer D for 1.5 h incubation. After five washes in PBS for 30 min, samples were treated with Goat anti-rabbit secondary antibody (1:200, v/v, Alexa Fluor™ 594). Samples were washed, dried, and mounted with Mowiol containing 4′,6-diamidino-2-phenylindole (DAPI). Immuno-stained cells were visualized with Zeiss Elyra microscopy. Pictures of stack 3 (of 5), rotation 1 (of 3), and phase 5 (of 5) were chosen for all control and compound-treated samples.

GST-TbPEX3d44 = test: NMR saturation transfer difference (STD) with GST-TbPEX3; assay type: binding, Trypanosoma brucei; conditions: for STD NMR effect with GST-TbPEX3: 10 μM protein, 300 µM ligand
Protocol: as §1

[4] = Cytotoxicity test on HepG2 cells; conditions: human

SMILES | Activity scores (robust z-scores) [2] | Note (activity in the screen) [2] | Hacc (hydrogen bond acceptor) [1] | Hdon (hydrogen bond donor) [1] | LogSw [1] | further results
O=C(Cc1cccs1)N1C[C@H](O)[C@@H](N2CCCCC2)C1 (racemic) [Compound 41601289, rac-(3S,4S)-4-piperidin-1-yl-1-(2-thienylacetyl)pyrrolidin-3-ol] | 0.3122 | Not active | 3 | 1 | -2.24 | –
c1ccc(-c2ncc(CNCCOc3cccc4cccnc34)cn2)nc1 [Compound 1, N-[(2-pyridin-2-ylpyrimidin-5-yl)methyl]-2-(quinolin-8-yloxy)ethanamine] | – | – | 6 | 1 | -2.69 | STD NMR effect with GST-His control (GST-His): not to GST-His; also recorded: not with TbPEX19 or GST; EC50 (T. brucei BSF427; BSF427, 3 days of incubation, resazurin, read-out: T. brucei toxicity (EC50)): 33 µM; EC50 (T. brucei BSF427; Trypanosoma brucei, 72 h, BSF427, 3 days of incubation, resazurin, read-out: T. brucei toxicity (EC50)): 32.7 µM; Aldolase labeling phenotype (in words) [3]: diffused pattern of aldolase labeling; IC50 [2]: 1 µM; STD NMR effect with GST-TbPEX3 (GST-TbPEX3d44): significant STD effects; also recorded: strong STD signal; Target protein (NMR analysis) (GST-TbPEX3d44; protein assigned as target, GST-TbPEX3, TbPEX19-His and GST-His tested): TbPEX3; EC50 ([4]; HepG2 cells, Human cell cytotoxicity (EC50), HepG2, serial dilutions of up to 200 µM): > 200 µM
CCNC(=O)c1cc(NC(=O)C2CCOCC2)ccc1Cl [Compound 5, N-{4-chloro-3-[(ethylamino)carbonyl]phenyl}tetrahydro-2H-pyran-4-carboxamide] | – | – | 3 | 2 | -2.58 | Inhibition of TbPEX3–PEX19 interaction (in words) [2]: did not inhibit; STD NMR effect with GST-TbPEX3 (GST-TbPEX3d44): show STD signal; also recorded: consistent STD effects
CC(CCNC(=O)N1CCC(Oc2ncccn2)CC1)n1ccnc1 (centres unmarked) [Compound 6, N-[3-(1H-imidazol-1-yl)butyl]-4-(pyrimidin-2-yloxy)piperidine-1-carboxamide] | – | – | 5 | 1 | -2.34 | Inhibition of TbPEX3–PEX19 interaction (in words) [2]: did not inhibit; STD NMR effect with GST-TbPEX3 (GST-TbPEX3d44): show STD signal; also recorded: consistent STD effects
CCN(Cc1nccn1C)Cc1nccn1-c1ccc(OC)cc1 [Compound 26410952, N-{[1-(4-methoxyphenyl)-1H-imidazol-2-yl]methyl}-N-[(1-methyl-1H-imidazol-2-yl)methyl]ethanamine] | – | Active, require characterization | 4 | 0 | -3.12 | –
COCCN(Cc1cn2ccc(C)cc2n1)Cc1nccs1 [Compound 79442734, (2-methoxyethyl)[(7-methylimidazo[1,2-a]pyridin-2-yl)methyl](1,3-thiazol-2-ylmethyl)amine] | – | Active, require characterization | 4 | 0 | -2.43 | –
CN[C@@H]1C[C@H](N)[C@@H](O)[C@H](O[C@H]2O[C@H](CO)[C@H](O)[C@@H]3O[C@@]4(O[C@@H]23)O[C@H]([C@H](N)CO)[C@H](O)[C@H](O)[C@H]4O)[C@H]1O [Hygromycin, reference compound] | – | – | – | – | – | EC50 [4]: 16.2 µM
Cc1ccc(C(=O)Nc2ccc(S(=O)(=O)O)c3cc(S(=O)(=O)O)cc(S(=O)(=O)O)c23)cc1NC(=O)c1cccc(NC(=O)Nc2cccc(C(=O)Nc3cc(C(=O)Nc4ccc(S(=O)(=O)O)c5cc(S(=O)(=O)O)cc(S(=O)(=O)O)c45)ccc3C)c2)c1 [suramin, reference compound] | – | – | – | – | – | EC50 (T. brucei BSF427; Trypanosoma brucei, 72 h, read-out: T. brucei EC50, BSF427, 3 days of incubation, resazurin, positive control): 0.037 µM; EC50 (T. brucei BSF427; read-out: T. brucei EC50, BSF427, 3 days of incubation, resazurin, positive control): 0.0371 µM

The next lines start with results.

Activity scores (robust z-scores) [2] | Note (activity in the screen) [2] | SMILES | Hacc (hydrogen bond acceptor) [1] | Hdon (hydrogen bond donor) [1] | LogSw [1] | further results
– | Active, require characterization | COc1cc(CN2CCCN(Cc3ccccn3)CC2)cc2c1OCO2 [Compound 25282511, 1-[(7-methoxy-1,3-benzodioxol-5-yl)methyl]-4-(pyridin-2-ylmethyl)-1,4-diazepane] | 6 | 0 | -0.93 | –
0.2733 | Not active | CNC(=O)c1cccc(NC(=O)C2CCOC(C)(C)C2)c1C (centres unmarked) [Compound 31960442, 2,2-dimethyl-N-{2-methyl-3-[(methylamino)carbonyl]phenyl}tetrahydro-2H-pyran-4-carboxamide] | 3 | 2 | -2.90 | –
– | Active, require characterization | Cc1cc(=O)n(CCN(Cc2ccccn2)CC2CCCO2)c(=O)[nH]1 (centres unmarked) [Compound 54483906, 6-methyl-3-{2-[(pyridin-2-ylmethyl)(tetrahydrofuran-2-ylmethyl)amino]ethyl}pyrimidine-2,4(1H,3H)-dione] | 5 | 1 | -1.32 | –
2.5166 | Not active | CC(C)c1cc(C2CCCN2C(=O)c2ccc(-c3nnn(C)n3)cc2)no1 (centres unmarked) [Compound 54866350, 5-(4-{[2-(5-isopropylisoxazol-3-yl)pyrrolidin-1-yl]carbonyl}phenyl)-2-methyl-2H-tetrazole] | 6 | 0 | -2.94 | –
0.7988 | Not active | CC(=O)Nc1ccccc1NC(=O)CN(C)Cc1cnn(C)c1 [Compound 67602110, N~1~-[2-(acetylamino)phenyl]-N~2~-methyl-N~2~-[(1-methyl-1H-pyrazol-4-yl)methyl]glycinamide] | 4 | 2 | -2.21 | –
1.4019 | Not active | COc1cccc(N2CCN(C(=O)c3cccc(-c4cn[nH]c4)c3)CC2)c1 [Compound 92838291, 1-(3-methoxyphenyl)-4-[3-(1H-pyrazol-4-yl)benzoyl]piperazine] | 3 | 1 | -3.20 | –

From publication PMC8721105, “Novel Trypanocidal Inhibitors that Block Glycosome Biogenesis by Targeting PEX3–PEX19 Interaction” (Frontiers in Cell and Developmental Biology, 2021)
